The record followed here is patent US9681664B2, “Macrocyclic picolinamides as fungicides” (Dow Agrosciences LLC, priority 2012, dated 2017).

Each structure is given as a SMILES string.

What all share (format): in vivo
Test [1] concerns Cercospora beticola. The experiment in a line: Leaf spot of sugar beets (CERCBE) disease control. The settings on record: 24 h, 1 Day Protectant, high volume, read-out: Disease Control CERCBE 1 DP. The protocol:
Technical grades of materials were dissolved in acetone, which were then mixed with nine volumes of water containing 110 ppm Triton X-100. The fungicide solutions were applied onto wheat seedlings using an automated booth sprayer to run-off. All sprayed plants were allowed to air dry prior to further handling. All fungicides were evaluated using the aforementioned method for their activity vs. all target diseases. Wheat leaf blotch and brown rust activity were also evaluated using track spray applications, in which case the fungicides were formulated as EC formulations, containing 0.1% Trycol 5941 in the spray solutions. Sugar beet plants (variety HH88) were grown in soil-less Metro mix and trimmed regularly to maintain a uniform plant size prior to test. Plants were inoculated with a spore suspension 24 hr after fungicide treatments. Inoculated plants were kept in a dew chamber at 22° C. for 48 hr then incubated in a greenhouse set at 24° C. under a clear plastic hood with bottom ventilation until disease symptoms were fully expressed. Fungicide formulation, application and disease assessment on the sprayed leaves followed the procedures as described in the Example A.

Test [2] deals with Rhyncosporium secalis. The experiment in a line: Barley scald (RHYNSE) disease control. The note with it: 24 h, High volume application, 1 Day Protectant, read-out: RHYNSE 1 DP disease control. On the procedure:
Technical grades of materials were dissolved in acetone, which were then mixed with nine volumes of water containing 110 ppm Triton X-100. The fungicide solutions were applied onto wheat seedlings using an automated booth sprayer to run-off. All sprayed plants were allowed to air dry prior to further handling. All fungicides were evaluated using the aforementioned method for their activity vs. all target diseases. Wheat leaf blotch and brown rust activity were also evaluated using track spray applications, in which case the fungicides were formulated as EC formulations, containing 0.1% Trycol 5941 in the spray solutions. Barley seedlings (variety Harrington) were propagated in soil-less Metro mix, with each pot having 8 to 12 plants, and used in the test when first leaf was fully emerged. Test plants were inoculated by an aqueous spore suspension of Rhyncosporium secalis 24 hr after fungicide treatments. After inoculation the plants were kept in a dew room at 20° C. with 100% relative humidity for 48 hr. The plants were then transferred to a greenhouse set at 20° C. for disease to develop. Fungicide formulation, application and disease assessment on the sprayed leaves followed the procedures as described in the Example A.

Test [3] relates to Alternaria solani. Put plainly: Tomato early blight (ALTESO) disease control. The note with it: 24 h, 1 Day Protectant, high volume, read-out: Disease Control ALTESO 1 DP. The protocol:
Technical grades of materials were dissolved in acetone, which were then mixed with nine volumes of water containing 110 ppm Triton X-100. The fungicide solutions were applied onto wheat seedlings using an automated booth sprayer to run-off. All sprayed plants were allowed to air dry prior to further handling. All fungicides were evaluated using the aforementioned method for their activity vs. all target diseases. Wheat leaf blotch and brown rust activity were also evaluated using track spray applications, in which case the fungicides were formulated as EC formulations, containing 0.1% Trycol 5941 in the spray solutions. Tomato plants (variety Outdoor girl) were propagated in soil-less Metro mix, with each pot having one plant, and used when 12 to 14 days old. Test plants were inoculated with an aqueous spore suspension of Alternaria solani 24 hr after fungicide treatments. After inoculation the plants were kept in 100% relative humidity (one day in a dark dew chamber followed by two to three days in a lighted dew chamber at 20° C.) to permit spores to germinate and infect the leaf. The plants were then transferred to a growth room at 22° C. for disease to develop. Fungicide formulation, application and disease assessment on the sprayed leaves followed the procedures as described in the Example A.

The test system of test [4] is Glomerella lagenarium; Anamorph: Colletotrichum lagenarium. The experiment in a line: Cucumber anthracnose (COLLLA) disease control. The settings on record: Colletotrichum orbiculare, 24 h, 1 Day Protectant, high volume, read-out: Disease Control COLLLA 1 DP. The protocol:
Technical grades of materials were dissolved in acetone, which were then mixed with nine volumes of water containing 110 ppm Triton X-100. The fungicide solutions were applied onto wheat seedlings using an automated booth sprayer to run-off. All sprayed plants were allowed to air dry prior to further handling. All fungicides were evaluated using the aforementioned method for their activity vs. all target diseases. Wheat leaf blotch and brown rust activity were also evaluated using track spray applications, in which case the fungicides were formulated as EC formulations, containing 0.1% Trycol 5941 in the spray solutions. Cucumber seedlings (variety Bush Pickle) were propagated in soil-less Metro mix, with each pot having one plant, and used in the test when 12 to 14 days old. Test plants were inoculated with an aqueous spore suspension of Colletotrichum lagenarium 24 hr after fungicide treatments. After inoculation the plants were kept in a dew room at 22° C. with 100% relative humidity for 48 hr to permit spores to germinate and infect the leaf. The plants were then transferred to a growth room set at 22° C. for disease to develop. Fungicide formulation, application and disease assessment on the sprayed leaves followed the procedures as described in the Example A.

In test [5] the test system is Leptosphaeria nodorum. Put plainly: Wheat glume blotch (LEPTNO) disease control. The settings on record: Parastagonospora nodorum, 24 h, High volume application, 1 Day Protectant, read-out: LEPTNO 1 DP disease control. The protocol: Technical grades of materials were dissolved in acetone, which were then mixed with nine volumes of water containing 110 ppm Triton X-100. The fungicide solutions were applied onto wheat seedlings using an automated booth sprayer to run-off. All sprayed plants were allowed to air dry prior to further handling. All fungicides were evaluated using the aforementioned method for their activity vs. all target diseases. Wheat leaf blotch and brown rust activity were also evaluated using track spray applications, in which case the fungicides were formulated as EC formulations, containing 0.1% Trycol 5941 in the spray solutions. Wheat plants (variety Yuma) were grown from seed in a greenhouse in 50% mineral soil/50% soil-less Metro mix until the first leaf was fully emerged, with 7-10 seedlings per pot. These plants were inoculated with an aqueous spore suspension of Leptosphaeria nodorum 24 hr after fungicide treatments. After inoculation the plants were kept in 100% relative humidity (one day in a dark dew chamber followed by two days in a lighted dew chamber at 20° C.) to permit spores to germinate and infect the leaf. The plants were then transferred to a greenhouse set at 20° C. for disease to develop. Fungicide formulation, application and disease assessment followed the procedures as described in the Example A.

`COc1ccnc(C(=O)N[C@H]2CCC[C@H](Oc3ccccc3)[C@@H](OCCCc3ccccc3)[C@H](C)OC2=O)c1OCOC(C)=O` [F130]: the pest or weed control at 100 ppm in test [1], in test [2] and in test [3] was 80 to 100% each time.
Take `COCCC(=O)Oc1c(OC)ccnc1C(=O)N[C@H]1CCC[C@H](Oc2ccccc2)[C@@H](OCCCc2ccccc2)[C@H](C)OC1=O` [F132]: the pest or weed control at 100 ppm in test [1] lay in the range of 0 to 80%; in test [2], 0 to 80%; in test [3], 80 to 100%.
Regarding `COc1ccnc(C(=O)N[C@H]2CCC[C@H](OCCCc3ccccc3)[C@@H](Oc3ccccc3)[C@H](C)OC2=O)c1OC(C)=O` [F134], the pest or weed control at 100 ppm fell in the range of 80 to 100% in test [1], 80 to 100% in test [2] and 0 to 80% in test [3].
As for `CCCO[C@H]1CCC[C@H](NC(=O)c2nccc(OC)c2OCOC(C)=O)C(=O)O[C@@H](C)[C@@H]1Oc1ccccc1` [F138], the pest or weed control at 100 ppm in test [1], in test [2], in test [3] and in test [4] was 80 to 100% each time.
For the compound `CCCO[C@H]1CCC[C@H](NC(=O)c2nccc(OC)c2OCOC(=O)C(C)C)C(=O)O[C@@H](C)[C@@H]1Oc1ccccc1` [F139], the pest or weed control at 100 ppm in test [1], in test [2], in test [3] and in test [4] was 80 to 100% each time.
Regarding `CCCO[C@H]1CCC[C@H](NC(=O)c2nccc(OC)c2OC(=O)CCOC)C(=O)O[C@@H](C)[C@@H]1Oc1ccccc1` [F140], the pest or weed control at 100 ppm in test [1], in test [2], in test [3] and in test [4] was 80 to 100% each time.
Regarding `CCCO[C@H]1CCC[C@H](NC(=O)c2nccc(OC)c2OC(C)=O)C(=O)O[C@@H](C)[C@@H]1Oc1ccccc1` [F141], the pest or weed control at 100 ppm in test [5], in test [1], in test [2], in test [3] and in test [4] was 80 to 100% in each case.
Take `CCCO[C@H]1CCC[C@H](NC(=O)c2nccc(OC)c2OCOC(=O)C(C)C)C(=O)O[C@@H](C)[C@@H]1OC1CCCC1` [F154]: the pest or weed control at 100 ppm in test [1], in test [2], in test [3] and in test [4] was 80 to 100% in each case.
In the case of `CCCO[C@H]1CCC[C@H](NC(=O)c2nccc(OC)c2OCOC(C)=O)C(=O)O[C@@H](C)[C@@H]1OC1CCCC1` [F155], the pest or weed control at 100 ppm in test [1] fell in the range of 80 to 100%; in test [2] it was 0 to 80%; in test [3], 80 to 100%; in test [4] it was 80 to 100%.
As for `COc1ccnc(C(=O)N[C@H]2CCC[C@H](OC3CCCC3)[C@@H](OCCCc3ccccc3)[C@H](C)OC2=O)c1OCOC(C)=O` [F165], the pest or weed control at 100 ppm in test [1], in test [2] and in test [3] was 80 to 100% throughout.
With `CCCCCO[C@H]1[C@H](C)OC(=O)[C@@H](NC(=O)c2nccc(OC)c2OCOC(C)=O)CCC[C@@H]1OC1CCCC1` [F166], the pest or weed control at 100 ppm in test [1], in test [2] and in test [3] was 80 to 100% throughout.
Regarding `COc1ccc(O[C@H]2CCC[C@H](NC(=O)c3nccc(OC)c3OCOC(=O)C(C)C)C(=O)O[C@@H](C)[C@@H]2OC2CCCC2)cc1` [F169], the pest or weed control at 100 ppm in test [1], in test [2] and in test [3] was 80 to 100% each time.
In the case of `COc1ccc(O[C@H]2CCC[C@H](NC(=O)c3nccc(OC)c3OCOC(C)=O)C(=O)O[C@@H](C)[C@@H]2OC2CCCC2)cc1` [F170], the pest or weed control at 100 ppm in test [1], in test [2] and in test [3] was 80 to 100% throughout.
Take `COc1ccnc(C(=O)N[C@H]2CCC[C@H](OCCCC(F)(F)F)[C@@H](OC3CCCC3)[C@H](C)OC2=O)c1OCOC(=O)C(C)C` [F171]: the pest or weed control at 100 ppm in test [1], in test [2] and in test [3] was 80 to 100% each time.
As for `COc1ccnc(C(=O)N[C@H]2CCC[C@H](OCCCC(F)(F)F)[C@@H](OC3CCCC3)[C@H](C)OC2=O)c1OCOC(C)=O` [F172], the pest or weed control at 100 ppm in test [1], in test [2] and in test [3] was 80 to 100% throughout.
As for `COc1ccnc(C(=O)N[C@H]2CCC[C@H](OCCCC(F)(F)F)[C@@H](OC3CCCC3)[C@H](C)OC2=O)c1OC(C)=O` [F173], the pest or weed control at 100 ppm in test [1], in test [2] and in test [3] was 80 to 100% in each case.
As for `CCOCC(=O)OCOc1c(OC)ccnc1C(=O)N[C@H]1CCC[C@H](Oc2ccccc2)[C@@H](OC(=O)C2CCCC2)[C@H](C)OC1=O` [F237], the pest or weed control at 100 ppm in test [1] is 80 to 100%; in test [2], less than 0%; in test [3] it was 0 to 80%; in test [4], 0 to 80%.
For `COc1ccnc(C(=O)N[C@H]2CCC[C@H](Oc3ccccc3)[C@@H](OC(=O)C3CC3)[C@H](C)OC2=O)c1OCOC(=O)C(C)C` [F241], the pest or weed control at 100 ppm in test [1] lay in the range of 80 to 100%; in test [2], 0 to 80%; in test [3], 0 to 80%; in test [4], 80 to 100%.
`COc1ccnc(C(=O)N[C@H]2CCC[C@H](Oc3ccccc3)[C@@H](OC(=O)C3CC3)[C@H](C)OC2=O)c1OC(C)=O` [F242]: the pest or weed control at 100 ppm is 80 to 100% in test [1], less than 0% in test [2], less than 0% in test [3] and 80 to 100% in test [4].
Consider `C=C(C)CO[C@H]1CCC[C@H](NC(=O)c2nccc(OC)c2OCOC(C)=O)C(=O)O[C@@H](C)[C@@H]1OC` [F250], for which the pest or weed control at 100 ppm is 80 to 100% in test [5]; 0 to 80% in test [1]; 0 to 80% in test [2]; 0 to 80% in test [3]; 0 to 80% in test [4].
